Test [1] has as its target T1, SARS-CoV-2 PLpro (nsp3 1564–1878) (Severe acute respiratory syndrome coronavirus 2, UniProt P0DTD1). Briefly: biochemical. Further details: FRET-quenched peptide (Pro3) cleavage by PLpro, 10 min pre-incubation, slope over 20 min, normalised to no-compound control. As to conditions: read-out: % of control remaining.
Test [2] deals with T1, SARS-CoV-2 PLpro (nsp3 1564–1878). Briefly: biochemical. On the set-up: FRET-quenched peptide (Pro3) cleavage by PLpro, 10 min pre-incubation, slope over 20 min, normalised to no-compound control. As to conditions: read-out: % of control remaining. This is another data set of the same source.

Where a name gives a salt, the structure may show the parent alone. Read-outs that look alike come from different tables or passages of the source. Where a SMILES comes first, the peptide text is derived from it. [ ]: non-standard residue; d: D form. αMeP = C[C@@]1(C(=O)O)CCCN1

Take `O=c1c(-c2ccc(F)cc2)c(-c2ccncc2)[nH]n1-c1ccc(Cl)cc1` [p38 MAP Kinase Inhibitor]: in test [1] (Well no.=2598, low concentration screen), the remaining activity at 1.25 µM was determined as 97.4%. Besides, the remaining activity at 3.75 µM in test [2] (Well no.=2598, high concentration screen) was 99.2%.

As for `CN1[C@@H]2CC(=O)C[C@H]1[C@H](O)C2` [6-Hydroxytropinone], the remaining activity at 1.25 µM in test [1] (Well no.=3639, low concentration screen) worked out at 99.8%. Also, in test [2] (Well no.=3639, high concentration screen), the remaining activity at 3.75 µM worked out at 104%.

For the molecule `Clc1ccc(C(Cn2ccnc2)OCc2csc3c(Cl)cccc23)c(Cl)c1` (centres unmarked) [Sertaconazole nitrate], in test [1] (Well no.=5411, low concentration screen), the remaining activity at 1.25 µM was 89.7%. For the same molecule, in test [2] (Well no.=5411, high concentration screen), the remaining activity at 3.75 µM was found to be 93%.

As to `C1COC(NC(C2CC2)C2CC2)=N1` [Rilmenidine hemifumarate], in test [1] (Well no.=1450, low concentration screen), the remaining activity at 1.25 µM is 101%. The remaining activity at 3.75 µM in test [2] (Well no.=1450, high concentration screen) was determined as 99.9%.

`CCOC(=O)N[C@@H]1CC[C@@H]2[C@@H](C1)C[C@H]1C(=O)O[C@H](C)[C@H]1[C@H]2/C=C/c1ccc(-c2cccc(F)c2)cn1` [Vorapaxar]: in test [1] (Well no.=7567, low concentration screen), the remaining activity at 1.25 µM stood at 97.6%. In test [2] (Well no.=7567, high concentration screen), the remaining activity at 3.75 µM was 89.4%.

With `C[C@@]1(C(=O)N[C@@H](CCC(=O)O)C(=O)O)CCCN1C(=O)CN` [Trofinetide] (H-Gly-[αMeP]-Glu-OH), the remaining activity at 1.25 µM in test [1] (Well no.=8554, low concentration screen) came to 108%. The remaining activity at 3.75 µM in test [2] (Well no.=8554, high concentration screen) is 98.6%.

Turning to `C=CCc1cccc(/C=N/NC(=O)CN2CCN(Cc3ccccc3)CC2)c1O` [PAC-1], the remaining activity at 1.25 µM in test [1] (Well no.=4697, low concentration screen) is 103%; in test [1] (Well no.=6200, low concentration screen), 107%. For the same molecule, the remaining activity at 3.75 µM came to 101% in test [2] (Well no.=4697, high concentration screen) and 93.7% in test [2] (Well no.=6200, high concentration screen).

In the case of `CCCCCCC(C)(C)c1ccc([C@@H]2C[C@H](O)CC[C@H]2CCCO)c(O)c1` [CP55940], the remaining activity at 1.25 µM in test [1] was 104%. In addition, the remaining activity at 3.75 µM in test [2] was 106%.

`c1cc(CN2CCCNCCNCCCNCC2)ccc1CN1CCCNCCNCCCNCC1` [Plerixafor (octahydrochloride)]: the remaining activity at 1.25 µM in test [1] (Well no.=8020, low concentration screen) came out at 95.7%; in test [1] (Well no.=8097, low concentration screen), 104%; in test [1] (Well no.=8749, low concentration screen), 100%. Moreover, the remaining activity at 3.75 µM was 94.1% in test [2] (Well no.=8020, high concentration screen); 101% in test [2] (Well no.=8097, high concentration screen); 100% in test [2] (Well no.=8749, high concentration screen).

On to `O=C(O)c1ccccc1C(=O)Nc1ccc(S(=O)(=O)Nc2nccs2)cc1` [Phthalylsulfathiazole], for which, in test [1] (Well no.=7314, low concentration screen), the remaining activity at 1.25 µM is 97.8%. Besides, the remaining activity at 3.75 µM in test [2] (Well no.=7314, high concentration screen) was 95.3%.

As to `COc1cccc(-c2c(C)n(Cc3c(F)cccc3C(F)(F)F)c(=O)n(C[C@H](NCCCC(=O)O)c3ccccc3)c2=O)c1F` [Elagolix], the remaining activity at 1.25 µM in test [1] (Well no.=7420, low concentration screen) was 97.8%. Further, the remaining activity at 3.75 µM in test [2] (Well no.=7420, high concentration screen) came out at 94.7%.

Take `CNC(=C[N+](=O)[O-])NCCSCc1ccc(CN(C)C)o1` [Ranitidine hydrochloride]: the remaining activity at 1.25 µM in test [1] (Well no.=1304, low concentration screen) is 101%. In test [2] (Well no.=1304, high concentration screen), the remaining activity at 3.75 µM was 101%.

Regarding `CC(C)Cc1ccc([C@H](C)C(=O)O)cc1` [S(+)-Ibuprofen], the remaining activity at 1.25 µM in test [1] (Well no.=825, low concentration screen) was found to be 103%. Besides, in test [2] (Well no.=825, high concentration screen), the remaining activity at 3.75 µM stood at 105%.

For `COc1ccc2[nH]c(I)c(CCNC(C)=O)c2c1` [2-Iodomelatonin], the remaining activity at 1.25 µM in test [1] (Well no.=622, low concentration screen) came out at 99.9%. In test [2] (Well no.=622, high concentration screen), the remaining activity at 3.75 µM was determined as 99.7%.

In the case of `CC(C)(CCCCCC(O)CCCCCC(C)(C)C(=O)O)C(=O)O` [ETC-1002], the remaining activity at 1.25 µM in test [1] (Well no.=8628, low concentration screen) is 101%. Also, the remaining activity at 3.75 µM in test [2] (Well no.=8628, high concentration screen) stood at 98.8%.

`Nc1cc(N2CCCCC2)nc(N)[n+]1[O-]` [Minoxidil]: the remaining activity at 1.25 µM turned out to be 93.8% in test [1] (Well no.=1070, low concentration screen) and 89.4% in test [1] (Well no.=1808, low concentration screen). Also, the remaining activity at 3.75 µM worked out at 96.2% in test [2] (Well no.=1070, high concentration screen) and 90.5% in test [2] (Well no.=1808, high concentration screen).

Consider `c1ccc2nc(N3CCNCC3)ccc2c1` [Quipazine dimaleate], for which, in test [1] (Well no.=1411, low concentration screen), the remaining activity at 1.25 µM came to 99.5%. Moreover, the remaining activity at 3.75 µM in test [2] (Well no.=1411, high concentration screen) amounted to 101%.

With `CC(=O)OC(C)C[N+](C)(C)C` (stereo not drawn) [Acetyl-beta-methylcholine chloride], the remaining activity at 1.25 µM in test [1] (Well no.=107, low concentration screen) was determined as 98.7%. Besides, the remaining activity at 3.75 µM in test [2] (Well no.=107, high concentration screen) was determined as 98.4%.

Turning to `Cn1cnc(CCN)c1` [1-Methylhistamine dihydrochloride], in test [1] (Well no.=928, low concentration screen), the remaining activity at 1.25 µM came out at 101%. Also, the remaining activity at 3.75 µM in test [2] (Well no.=928, high concentration screen) turned out to be 103%.

Turning to `CCCCCCCC/C=C\CCCCCCCC(=O)NCC(=O)O` [N-Oleoylglycine], the remaining activity at 1.25 µM in test [1] (Well no.=5803, low concentration screen) was determined as 104%. The remaining activity at 3.75 µM in test [2] (Well no.=5803, high concentration screen) was determined as 106%.

With `C/C=C(/C)C(=O)O[C@H]1CC(C)=CC(=O)[C@@]2(C)CC[C@@](O)(C(C)C)[C@H]12` [Lapidin], in test [1] (Well no.=3159, low concentration screen), the remaining activity at 1.25 µM was 105%. Moreover, the remaining activity at 3.75 µM in test [2] (Well no.=3159, high concentration screen) was determined as 105%.

For `CS(=O)(=O)CCNCc1nc(-c2ccc3ncnc(Nc4ccc(OCc5cccc(F)c5)c(Cl)c4)c3c2)cs1` [GW 583340 dihydrochloride - N-[3-Chloro-4-[(3-fluorophenyl)methoxy]phenyl]-6-[2-[[[2-(methylsulfonyl)ethyl]amino]methyl]-4-thiazolyl]-4-quinazolinamine dihydrochloride], the remaining activity at 1.25 µM in test [1] (Well no.=2490, low concentration screen) amounted to 94.4%. The remaining activity at 3.75 µM in test [2] (Well no.=2490, high concentration screen) came to 94.9%.

Regarding `CN(C)C(=O)C(CCN1CCC(O)(c2ccc(Cl)cc2)CC1)(c1ccccc1)c1ccccc1` [Loperamide hydrochloride], in test [1] (Well no.=1073, low concentration screen), the remaining activity at 1.25 µM is 94.7%. Besides, in test [2] (Well no.=1073, high concentration screen), the remaining activity at 3.75 µM stood at 98.4%.

Consider `COc1cc2nc(N3CCN(C(=O)c4ccco4)CC3)nc(N)c2cc1OC` [Prazosin (hydrochloride)], for which the remaining activity at 1.25 µM in test [1] (Well no.=6411, low concentration screen) was determined as 96.4%. The remaining activity at 3.75 µM in test [2] (Well no.=6411, high concentration screen) is 85.9%.

Regarding `CCOP(=O)(OCC)C(=Cc1cc(C(C)(C)C)c(O)c(C(C)(C)C)c1)P(=O)(OCC)OCC` [SR 12813], the remaining activity at 1.25 µM in test [1] was determined as 96.5%. Further, in test [2], the remaining activity at 3.75 µM is 103%.

On to `CC(=O)NCCCC[C@H](N)C(=O)O` [Nepsilon-Acetyl-L-lysine], for which the remaining activity at 1.25 µM in test [1] (Well no.=6211, low concentration screen) turned out to be 116%. In addition, the remaining activity at 3.75 µM in test [2] (Well no.=6211, high concentration screen) came out at 106%.

Regarding `CCCCCC[C@H]1C(=O)O[C@H](C)[C@H](NC(=O)c2cccc(NC=O)c2O)C(=O)O[C@@H](C)[C@@H]1OC(=O)CC(C)C` [Antimycin A1], the remaining activity at 1.25 µM in test [1] (Well no.=3158, low concentration screen) was determined as 98.9%. Further, in test [2] (Well no.=3158, high concentration screen), the remaining activity at 3.75 µM was 98.6%.

Turning to `COc1ccc(Cl)c(Nc2nc3ccccc3nc2NS(=O)(=O)c2cccc(NC(=O)C(C)(C)N)c2)c1` [XL147], in test [1] (Well no.=4669, low concentration screen), the remaining activity at 1.25 µM came to 105%. Besides, the remaining activity at 3.75 µM in test [2] (Well no.=4669, high concentration screen) was 106%.

Take `Cn1c(=O)c2[nH]c(C3CCCC3)nc2n(C)c1=O` [8-Cyclopentyl-1,3-dimethylxanthine]: the remaining activity at 1.25 µM in test [1] (Well no.=723, low concentration screen) is 98.4%. The remaining activity at 3.75 µM in test [2] (Well no.=723, high concentration screen) was found to be 101%.

Turning to `NCCCC[C@@H]1NC(=O)[C@@H](Cc2ccc(O)cc2)NC(=O)[C@H](CC(=O)O)NC(=O)CNC(=O)[C@H](CCCN=C(N)N)NC1=O` [Cyclo(RGDyK) trifluoroacetate], the remaining activity at 1.25 µM in test [1] (Well no.=8698, low concentration screen) was determined as 101%. In addition, the remaining activity at 3.75 µM in test [2] (Well no.=8698, high concentration screen) was found to be 97.8%.

Source of the values: paper PMC8286840, “Identifying SARS-CoV-2 antiviral compounds by screening for small molecule inhibitors of Nsp3 papain-like protease” (Biochemical Journal, 2021).
